Experimental data reported in ChEMBL document CHEMBL3045262, “Synthesis and Insecticidal Activity of Novel 1-Benzoyl-3-phenylurea Derivatives with Polyfluoroethylsulfenyl, -sulfonyl, and-sulfinyl Substituents” (1992).

Key:
Assay type in all cases: functional
[1] = tested on: Adoxophyes orana; assay: Larvicidal activity against second-instar larvae of Adoxophyes orana infested soybean seedling assessed as mortality at 5 ppm measured after 7 days; conditions: 168 h
[2] = tested on: Spodoptera litura; assay: Larvicidal activity against third-instar larvae of Spodoptera litura infested in soybean seedling assessed as mortality at 2 ppm sprayed 6 days prior to infestation measured after 5 days
[3] = tested on: Spodoptera litura; assay: Larvicidal activity against third-instar larvae of Spodoptera litura infested in soybean seedling assessed as mortality at 2 ppm sprayed 1 day prior to infestation measured after 5 days
[4] = tested on: Plutella xylostella; assay: Larvicidal activity against second-instar larvae of Plutella xylostella (diamondback moth) infested raddish seedling assessed as mortality at 3.3 ppm sprayed 2 hr prior to infestation measured after 4 days

Row | SMILES | mortality at 5 ppm [1] | mortality at 2 ppm [2] | mortality at 2 ppm [3] | mortality at 3.3 ppm [4]
1 | Cc1cc(NC(=O)NC(=O)c2c(F)cccc2F)ccc1S(=O)(=O)C(F)(F)C(F)F | 25% | 60% | 70% | 100%
2 | Cc1c(NC(=O)NC(=O)c2c(F)cccc2F)ccc(SC(F)(F)C(F)Cl)c1C (stereo not given) | 100% | 100% | 100% | 100%
3 | O=C(NC(=O)c1c(F)cccc1F)Nc1ccc(SC(F)(F)C(F)F)cc1Cl | 100% | 100% | 100% | 100%
4 | O=C(NC(=O)c1c(F)cccc1F)Nc1cc(Cl)c(SC(F)(F)C(F)Cl)cc1Cl (stereo not given) | 100% | 100% | 100% | 100%
5 | O=C(NC(=O)c1c(F)cccc1F)Nc1ccc(SC(F)(F)C(F)Cl)cc1F (stereo not given) | 100% | 100% | 100% | 100%
6 | Cc1c(NC(=O)NC(=O)c2c(F)cccc2F)ccc(S(=O)(=O)C(F)(F)C(F)F)c1C | 100% | 100% | 100% | 100%
7 | O=C(NC(=O)c1c(F)cccc1F)Nc1cc(Cl)c(S(=O)(=O)C(F)(F)C(F)F)cc1Cl | 90% | 95% | 100% | 95%
8 | Cc1c(NC(=O)NC(=O)c2c(F)cccc2F)ccc(S(=O)(=O)C(F)(F)C(F)Cl)c1C (stereo not given) | 100% | 100% | 100% | 100%
9 | O=C(NC(=O)c1c(F)cccc1F)Nc1ccc(S(=O)(=O)C(F)(F)C(F)Cl)cc1Cl (stereo not given) | 100% | 100% | 100% | 95%
10 | O=C(NC(=O)c1c(F)cccc1F)Nc1ccc(SC(F)(F)C(F)F)c(Cl)c1Cl | 100% | 100% | 100% | 100%
11 | O=C(NC(=O)c1c(F)cccc1F)Nc1ccc(SC(F)(F)C(F)Cl)cc1 (stereo not given) | 40% | 45% | 65% | 100%
12 | O=C(NC(=O)c1c(F)cccc1F)Nc1ccc([S+]([O-])C(F)(F)C(F)F)c(Cl)c1Cl (stereo not given) | 85% | 100% | 100% | 100%
13 | O=C(NC(=O)c1c(F)cccc1F)Nc1ccc([S+]([O-])C(F)(F)C(F)F)cc1 (stereo not given) |  | 15% | 5% | 100%
14 | Cc1cc([S+]([O-])C(F)(F)C(F)F)ccc1NC(=O)NC(=O)c1c(F)cccc1F (stereo not given) | 100% | 100% | 100% | 100%
15 | Cc1c(NC(=O)NC(=O)c2c(F)cccc2F)ccc([S+]([O-])C(F)(F)C(F)Cl)c1C (stereo not given) | 100% | 100% | 100% | 100%
16 | O=C(NC(=O)c1c(F)cccc1F)Nc1ccc([S+]([O-])C(F)(F)C(F)Cl)cc1F (stereo not given) | 100% | 100% | 100% | 100%
17 | O=C(NC(=O)c1c(F)cccc1F)Nc1cc(Cl)c(SC(F)(F)C(F)F)cc1Cl | 100% | 85% | 100% | 100%
18 | O=C(NC(=O)c1c(F)cccc1F)Nc1ccc(SC(F)(F)C(F)Cl)cc1Br (stereo not given) | 100% | 100% | 100% | 95%

Row | SMILES | mortality at 5 ppm [1] | mortality at 2 ppm [2] | mortality at 2 ppm [3] | mortality at 3.3 ppm [4]
19 | O=C(NC(=O)c1c(F)cccc1F)Nc1ccc([S+]([O-])C(F)(F)C(F)F)cc1F (stereo not given) | 100% | 95% | 100% | 100%
20 | Cc1cc(NC(=O)NC(=O)c2c(F)cccc2F)ccc1SC(F)(F)C(F)F | 0% | 100% | 100% | 100%
21 | O=C(NC(=O)c1c(F)cccc1F)Nc1ccc([S+]([O-])C(F)(F)C(F)Cl)cc1Cl (stereo not given) | 95% | 90% | 100% | 95%
22 | Cc1c(NC(=O)NC(=O)c2c(F)cccc2F)ccc(SC(F)(F)C(F)F)c1C | 100% | 100% | 100% | 100%
23 | Cc1cc(SC(F)(F)C(F)Cl)ccc1NC(=O)NC(=O)c1c(F)cccc1F (stereo not given) | 95% | 100% | 100% | 100%
24 | Cc1cc([S+]([O-])C(F)(F)C(F)Cl)c(C)cc1NC(=O)NC(=O)c1c(F)cccc1F (stereo not given) | 100% | 100% | 100% | 100%
25 | O=C(NC(=O)c1c(F)cccc1F)Nc1ccc(S(=O)(=O)C(F)(F)C(F)Cl)cc1F (stereo not given) | 100% | 100% | 100% | 100%
26 | O=C(NC(=O)c1c(F)cccc1F)Nc1ccc(SC(F)(F)C(F)Cl)c(Cl)c1Cl (stereo not given) | 100% | 100% | 100% | 95%
27 | Cc1cc(SC(F)(F)C(F)F)c(C)cc1NC(=O)NC(=O)c1c(F)cccc1F | 90% | 100% | 100% | 85%
28 | Cc1cc([S+]([O-])C(F)(F)C(F)F)c(C)cc1NC(=O)NC(=O)c1c(F)cccc1F (stereo not given) | 100% | 100% | 100% | 100%
29 | Cc1cc(S(=O)(=O)C(F)(F)C(F)Cl)c(C)cc1NC(=O)NC(=O)c1c(F)cccc1F (stereo not given) | 100% | 100% | 100% | 100%
30 | O=C(NC(=O)c1c(F)cccc1F)Nc1ccc(S(=O)(=O)C(F)(F)C(F)F)c(Cl)c1 | 100% | 35% | 60% | 80%
31 | O=C(NC(=O)c1c(F)cccc1F)Nc1ccc(S(=O)(=O)C(F)(F)C(F)Cl)c(Cl)c1Cl (stereo not given) | 100% | 100% | 100% | 100%
32 | Cc1cc(S(=O)(=O)C(F)(F)C(F)Cl)ccc1NC(=O)NC(=O)c1c(F)cccc1F (stereo not given) | 95% | 100% | 100% | 100%
33 | Cc1c(NC(=O)NC(=O)c2c(F)cccc2F)ccc([S+]([O-])C(F)(F)C(F)F)c1C (stereo not given) | 90% | 100% | 100% | 100%
34 | O=C(NC(=O)c1c(F)cccc1F)Nc1ccc([S+]([O-])C(F)(F)C(F)Cl)c(Cl)c1Cl (stereo not given) | 100% | 100% | 100% | 100%
35 | O=C(NC(=O)c1c(F)cccc1F)Nc1ccc(S(=O)(=O)C(F)(F)C(F)Cl)cc1 (stereo not given) |  | 0% | 0% | 
36 | O=C(NC(=O)c1c(F)cccc1F)Nc1ccc(S(=O)(=O)C(F)(F)C(F)F)cc1 |  | 0% | 0% | 90%
